Measured values: patent US9062124B2, “GIP-based mixed agonists for treatment of metabolic disorders and obesity” (priority 2008, dated 2015)
Read-outs that look alike come from different tables or passages of the source. *1 amine or outer side, *2 acyl side, *3 side chain or, on linkers, in order; H or OH if unused. Where a SMILES comes first, the peptide text is derived from it. Where no end group is shown, it is not given here. Side-chain parts run from the residue outwards. [ ]: non-standard residue; d: D form. The star is where a group is joined. PEG 40 kDa = PEG (40 kDa) covalently attached to Cys; γGlu = O=C(O)[C@H](CCC(=O)[*:2])N[*:1]; Palmitoyl = CCCCCCCCCCCCCCCC(=O)*; Aib = CC(C)(N)C(=O)O

Assays:
[1] = Body weight of mice after peptide injection; conditions: Example 41; DIO mice, subcutaneous daily for 7 days, 10 nmol/kg, Day 7
glucagon receptor = biological target: T1, glucagon receptor (Homo sapiens, UniProt P47871); experiment: cAMP synthesis functional assay (firefly luciferase reporter in HEK293 cells), glucagon receptor; format: cell-based; conditions: for % Relative activity at the Receptor for Glucagon: Table 8
T1 construct: expressed in transfected cells; host or cells: HEK293
T1 sequence (P47871 26-477): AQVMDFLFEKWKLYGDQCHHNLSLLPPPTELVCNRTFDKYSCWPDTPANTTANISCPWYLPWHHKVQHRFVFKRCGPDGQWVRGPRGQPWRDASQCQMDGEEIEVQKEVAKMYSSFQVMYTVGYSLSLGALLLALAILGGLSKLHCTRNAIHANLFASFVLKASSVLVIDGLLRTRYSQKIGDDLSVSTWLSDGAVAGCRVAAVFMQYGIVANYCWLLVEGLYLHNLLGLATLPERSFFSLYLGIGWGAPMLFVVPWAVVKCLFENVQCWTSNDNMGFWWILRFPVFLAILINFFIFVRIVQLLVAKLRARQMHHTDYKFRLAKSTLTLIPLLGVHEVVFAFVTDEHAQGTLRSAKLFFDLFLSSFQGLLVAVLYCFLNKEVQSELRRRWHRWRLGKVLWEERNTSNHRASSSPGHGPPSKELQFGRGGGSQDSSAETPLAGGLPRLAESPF

GIP receptor = biological target: T2, GIP receptor (Homo sapiens, UniProt P48546); experiment: cAMP synthesis functional assay (firefly luciferase reporter in HEK293 cells), GIP receptor; format: cell-based; conditions: for % Relative activity at the Receptor for GIP: Table 8
T2 construct: expressed in transfected cells; host or cells: HEK293
T2 sequence (P48546 22-466): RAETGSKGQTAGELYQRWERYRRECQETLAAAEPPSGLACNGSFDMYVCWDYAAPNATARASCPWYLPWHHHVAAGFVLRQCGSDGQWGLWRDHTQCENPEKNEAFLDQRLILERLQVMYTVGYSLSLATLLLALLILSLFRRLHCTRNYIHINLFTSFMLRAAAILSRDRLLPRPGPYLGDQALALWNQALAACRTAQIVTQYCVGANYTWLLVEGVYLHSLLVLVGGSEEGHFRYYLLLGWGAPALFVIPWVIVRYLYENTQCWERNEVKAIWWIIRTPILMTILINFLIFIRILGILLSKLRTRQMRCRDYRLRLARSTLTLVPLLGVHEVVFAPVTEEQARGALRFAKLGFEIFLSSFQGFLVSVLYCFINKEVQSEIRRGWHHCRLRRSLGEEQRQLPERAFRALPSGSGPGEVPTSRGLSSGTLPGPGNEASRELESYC

GLP-1 receptor = biological target: T3, GLP-1 receptor (Homo sapiens, UniProt P43220); experiment: cAMP synthesis functional assay (firefly luciferase reporter in HEK293 cells), GLP-1 receptor; format: cell-based; conditions: for % Relative activity at the Receptor for GLP-1: Table 8
T3 construct: expressed in transfected cells; host or cells: HEK293
T3 sequence (P43220 24-463, species assumed): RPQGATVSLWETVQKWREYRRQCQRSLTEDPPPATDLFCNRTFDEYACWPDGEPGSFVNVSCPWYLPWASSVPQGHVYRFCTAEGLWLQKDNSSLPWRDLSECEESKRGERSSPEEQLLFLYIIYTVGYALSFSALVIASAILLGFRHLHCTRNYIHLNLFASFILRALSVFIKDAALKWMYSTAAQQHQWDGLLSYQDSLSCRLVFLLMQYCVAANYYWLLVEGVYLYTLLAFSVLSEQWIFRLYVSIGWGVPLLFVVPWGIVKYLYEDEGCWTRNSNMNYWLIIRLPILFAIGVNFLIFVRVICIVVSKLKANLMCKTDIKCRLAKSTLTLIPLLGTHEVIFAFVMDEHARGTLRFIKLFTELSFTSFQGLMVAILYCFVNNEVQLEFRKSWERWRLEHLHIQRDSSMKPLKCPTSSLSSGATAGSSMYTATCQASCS

[2] = tested on: glucagon receptor, GLP-1 receptor or GIP receptor; experiment: Agonist profile across receptors assigned from the cAMP reporter assay data; format: cell-based; conditions: assigned from the in vitro EC50 data of Tables 1-4
[3] = Table 4, relative to the native hormone
[4] = Glucagon Receptor EC50, cAMP luciferase reporter assay as in Example 16
[5] = relative to the standard (Std.) EC50 of the same run
[6] = GIP Receptor EC50, cAMP luciferase reporter assay as in Example 16
[7] = GLP-1 Receptor EC50, cAMP luciferase reporter assay as in Example 16

Compound: mt-385: same structure as Peptide mt-384 except that Thr at position 7 was changed to an Ile (Y[Aib]QGTFISDK([γGlu-γGlu-C16])SIYLDKQAA[Aib]EFVNWLLAGGPSSGAPPPS-NH2)
- total change in body weight (weight loss, decrease) [1]: ~15%

Compound: CCCCCCCCCCCCCCCC(=O)N[C@@H](CCC(=O)N[C@@H](CCC(=O)NCCCC[C@H](NC(=O)[C@H](CO)NC(=O)[C@@H]1CCCN1C(=O)[C@@H]1CCCN1C(=O)[C@@H]1CCCN1C(=O)[C@H](C)NC(=O)CNC(=O)[C@H](CO)NC(=O)[C@H](CO)NC(=O)[C@@H]1CCCN1C(=O)CNC(=O)CNC(=O)[C@H](C)NC(=O)[C@H](CC(C)C)NC(=O)[C@H](CC(C)C)NC(=O)[C@H](Cc1c[nH]c2ccccc12)NC(=O)[C@H](CC(N)=O)NC(=O)[C@@H](NC(=O)[C@H](Cc1ccccc1)NC(=O)[C@H](CCC(=O)O)NC(=O)C(C)(C)NC(=O)[C@H](C)NC(=O)[C@H](C)NC(=O)[C@H](CCC(N)=O)NC(=O)[C@H](CCCCN)NC(=O)[C@H](CC(=O)O)NC(=O)[C@H](CC(C)C)NC(=O)[C@H](Cc1ccc(O)cc1)NC(=O)[C@@H](NC(=O)[C@H](CO)NC(=O)[C@H](Cc1ccc(O)cc1)NC(=O)[C@H](CC(=O)O)NC(=O)[C@H](CO)NC(=O)[C@@H](NC(=O)[C@H](Cc1ccccc1)NC(=O)[C@@H](NC(=O)CNC(=O)[C@H](CCC(=O)O)NC(=O)C(C)(C)NC(=O)[C@@H](N)Cc1ccc(O)cc1)[C@@H](C)O)[C@@H](C)O)[C@@H](C)CC)C(C)C)C(N)=O)C(=O)O)C(=O)O [mt-367]
- Glucagon Receptor relative activity (glucagon receptor; [3]): 4.11%
- % Relative activity at the Receptor for Glucagon (glucagon receptor): 4.11%
- EC50 (GIP receptor; GIP Receptor EC50, nM, Table 4): 0.0014 nM
- GIP Receptor relative activity (GIP receptor; [3]): 202.82%
- % Relative activity at the Receptor for GIP (GIP receptor): 202.82%
- total change in body weight (weight loss, decrease) [1]: ~18%
- GLP-1 Receptor relative activity (GLP-1 receptor; [3]): 405.94%
- % Relative activity at the Receptor for GLP-1 (GLP-1 receptor): 405.94%

Compound: mt-384: glucagon analog: Tyr1, AIB2, Lys10(γGlu-γGlu-C16), Ile12, Lys16, Gln17, Ala18, AIB20, Glu21, Asn24, Leu27, Ala28, Gly29, GPSSGAPPPS, amide (Y[Aib]QGTFTSDK([γGlu-γGlu-C16])SIYLDKQAA[Aib]EFVNWLLAGGPSSGAPPPS-NH2)
- total change in body weight (weight loss, decrease) [1]: ~21%

Compound: CCCCCCCCCCCCCCCC(=O)N[C@@H](CCC(=O)N[C@@H](CCC(=O)NCCCC[C@H](NC(=O)[C@H](CO)NC(=O)[C@@H]1CCCN1C(=O)[C@@H]1CCCN1C(=O)[C@@H]1CCCN1C(=O)[C@H](C)NC(=O)CNC(=O)[C@H](CO)NC(=O)[C@H](CO)NC(=O)[C@@H]1CCCN1C(=O)CNC(=O)CNC(=O)[C@H](C)NC(=O)[C@H](CC(C)C)NC(=O)[C@H](CC(C)C)NC(=O)[C@H](Cc1c[nH]c2ccccc12)NC(=O)[C@H](CC(N)=O)NC(=O)[C@@H](NC(=O)[C@H](Cc1ccccc1)NC(=O)[C@H](CCC(=O)O)NC(=O)C(C)(C)NC(=O)[C@H](C)NC(=O)[C@H](C)NC(=O)[C@H](CCC(N)=O)NC(=O)[C@H](CCCCN)NC(=O)[C@H](CC(=O)O)NC(=O)[C@H](CC(C)C)NC(=O)[C@H](Cc1ccc(O)cc1)NC(=O)[C@@H](NC(=O)[C@H](CO)NC(=O)[C@H](Cc1ccc(O)cc1)NC(=O)[C@H](CC(=O)O)NC(=O)[C@H](CO)NC(=O)[C@@H](NC(=O)[C@H](Cc1ccccc1)NC(=O)[C@@H](NC(=O)CNC(=O)[C@H](CCC(N)=O)NC(=O)C(C)(C)NC(=O)[C@@H](N)Cc1ccc(O)cc1)[C@@H](C)O)[C@@H](C)O)[C@@H](C)CC)C(C)C)C(N)=O)C(=O)O)C(=O)O [mt-368] (H-Y[Aib]QGTFTSDYSIYLDKQAA[Aib]EFVNWLLAGGPSSGAPPPSK([γGlu-γGlu-Palmitoyl])-NH2; N-terminus assumed)
- EC50 (glucagon receptor; Glucagon Receptor EC50, nM, Table 4): 0.0069 nM
- Glucagon Receptor relative activity (glucagon receptor; [3]): 491.82%
- % Relative activity at the Receptor for Glucagon (glucagon receptor): 491.82%
- GIP Receptor relative activity (GIP receptor; [3]): 296.07%
- % Relative activity at the Receptor for GIP (GIP receptor): 296.07%
- total change in body weight (weight loss, decrease) [1]: ~22%
- GLP-1 Receptor relative activity (GLP-1 receptor; [3]): 418.93%
- % Relative activity at the Receptor for GLP-1 (GLP-1 receptor): 418.93%

Compound: mt-249: linear peptide lacking a lactam bridge, AIB at position 16 and/or 20 (Y[Aib]QGTFTSDYSIYLD[Aib]QAAQEFVNWLLAGGPSSGAPPPSC(PEG 40 kDa)-NH2)
- Glucagon Receptor relative activity (glucagon receptor; Table 2): 0.59%
- EC50 (glucagon receptor; read-out: Glucagon Receptor EC50, Table 2, linear peptides with AIB at position 16 and/or 20): 10.3 nM
- GIP Receptor relative activity (GIP receptor; Table 2): 0.63%
- EC50 (GIP receptor; read-out: GIP Receptor EC50, Table 2): 2.71 nM
- receptor activity profile (glucagon / GLP-1 / GIP agonism) [2]: exhibited activities of glucagon/GLP-1/GIP triagonists
- GLP-1 Receptor relative activity (GLP-1 receptor; Table 2): 2.56%
- EC50 (GLP-1 receptor; read-out: GLP-1 Receptor EC50, Table 2): 0.391 nM

Compound: CCCCCCCCCCCCCCCC(=O)NCCCC[C@H](NC(=O)[C@H](CO)NC(=O)[C@@H]1CCCN1C(=O)[C@@H]1CCCN1C(=O)[C@@H]1CCCN1C(=O)[C@H](C)NC(=O)CNC(=O)[C@H](CO)NC(=O)[C@H](CO)NC(=O)[C@@H]1CCCN1C(=O)CNC(=O)CNC(=O)[C@H](CC(N)=O)NC(=O)[C@H](CCSC)NC(=O)[C@H](CC(C)C)NC(=O)[C@H](Cc1c[nH]c2ccccc12)NC(=O)[C@H](CS)NC(=O)[C@@H](NC(=O)[C@H](Cc1ccccc1)NC(=O)[C@H](CCC(=O)O)NC(=O)C(C)(C)NC(=O)[C@H](C)NC(=O)[C@H](C)NC(=O)[C@H](CCC(N)=O)NC(=O)[C@H](CCCCN)NC(=O)[C@H](CC(=O)O)NC(=O)[C@H](CC(C)C)NC(=O)[C@H](Cc1ccc(O)cc1)NC(=O)[C@@H](NC(=O)[C@H](CO)NC(=O)[C@H](Cc1ccc(O)cc1)NC(=O)[C@H](CC(=O)O)NC(=O)[C@H](CO)NC(=O)[C@@H](NC(=O)[C@H](Cc1ccccc1)NC(=O)[C@@H](NC(=O)CNC(=O)[C@H](CCC(N)=O)NC(=O)C(C)(C)NC(=O)[C@@H](N)Cc1ccc(O)cc1)[C@@H](C)O)[C@@H](C)O)[C@@H](C)CC)C(C)C)C(N)=O [mt-297]
- EC50 (glucagon receptor; [4]): 0.0132 nM
- Glucagon Receptor relative activity (glucagon receptor; [5]): 362.12%
- EC50 (GIP receptor; [6]): 0.0168 nM
- GIP Receptor relative activity (GIP receptor; [5]): 97.02%
- receptor activity profile (glucagon / GLP-1 / GIP agonism) [2]: exhibited activity at the GIP, GLP-1, and glucagon receptors
- EC50 (GLP-1 receptor; [7]): 0.0129 nM
- GLP-1 Receptor relative activity (GLP-1 receptor; [5]): 125.58%

Compound: mt-295: linear peptide of Table 3 (Y[Aib]EGTFTSDYSIYLDKQAA[Aib]EFVNWLLAGGPSSGAPPPSC(PEG 40 kDa)-NH2)
- Glucagon Receptor relative activity (glucagon receptor; [5]): 0.03%
- EC50 (GIP receptor; read-out: GIP Receptor EC50, cAMP luciferase reporter assay as in Example 16): 0.0577 nM
- GIP Receptor relative activity (GIP receptor; [5]): 19.06%
- receptor activity profile (glucagon / GLP-1 / GIP agonism) [2]: exhibited activity at the GIP, GLP-1, and glucagon receptors
- EC50 (GLP-1 receptor; read-out: GLP-1 Receptor EC50, cAMP luciferase reporter assay as in Example 16): 0.114 nM
- GLP-1 Receptor relative activity (GLP-1 receptor; [5]): 6.74%

Compound: CC[C@H](C)[C@H](NC(=O)[C@H](CO)NC(=O)[C@H](Cc1ccc(O)cc1)NC(=O)[C@H](CC(=O)O)NC(=O)[C@H](CO)NC(=O)[C@@H](NC(=O)[C@H](Cc1ccccc1)NC(=O)[C@@H](NC(=O)CNC(=O)[C@H](CCC(N)=O)NC(=O)C(C)(C)NC(=O)[C@@H](N)Cc1ccc(O)cc1)[C@@H](C)O)[C@@H](C)O)C(=O)N[C@@H](Cc1ccc(O)cc1)C(=O)N[C@@H](CC(C)C)C(=O)N[C@@H](CC(=O)O)C(=O)N[C@@H](CCCCN)C(=O)N[C@@H](CCC(N)=O)C(=O)N[C@@H](C)C(=O)N[C@@H](C)C(=O)NC(C)(C)C(=O)N[C@@H](CCC(=O)O)C(=O)N[C@@H](Cc1ccccc1)C(=O)N[C@H](C(=O)N[C@@H](CS)C(=O)N[C@@H](Cc1c[nH]c2ccccc12)C(=O)N[C@@H](CC(C)C)C(=O)N[C@@H](CC(C)C)C(=O)N[C@@H](C)C(=O)NCC(=O)NCC(=O)N1CCC[C@H]1C(=O)N[C@@H](CO)C(=O)N[C@@H](CO)C(=O)NCC(=O)N[C@@H](C)C(=O)N1CCC[C@H]1C(=O)N1CCC[C@H]1C(=O)N1CCC[C@H]1C(=O)N[C@@H](CO)C(=O)N[C@@H](CCCCN)C(N)=O)C(C)C [mt-289]
- EC50 (glucagon receptor; [4]): 0.0766 nM
- Glucagon Receptor relative activity (glucagon receptor; [5]): 67.75%
- EC50 (GIP receptor; [6]): 0.0234 nM
- GIP Receptor relative activity (GIP receptor; [5]): 46.58%
- receptor activity profile (glucagon / GLP-1 / GIP agonism) [2]: exhibited activity at the GIP, GLP-1, and glucagon receptors
- EC50 (GLP-1 receptor; [7]): 0.0144 nM
- GLP-1 Receptor relative activity (GLP-1 receptor; [5]): 81.25%
